A short description of data set [1]: Dose escalation (3+3 design) to determine recommend dose and administration schedule in humans. Particulars: oral once a day, patients with advanced solid cancers. In kind it is in vivo, human. The method, then:
This test was performed to determine the recommend dose and administration schedule of Compound 1 and investigate the safety profile of Compound 1 for patients with advanced solid cancers for which standard treatment options are not available.
In this Example, first, the recommend doses for the schedule of administration for 7 consecutive days and the schedule of 4-administration with 3-withdrawal were determined. In the schedule of administration of Compound 1 for 7 consecutive days, Compound 1 was orally administered consecutively once a day for three courses for a total duration of 21 days, with one course taken as 7 days. In 4-administration with 3-withdrawal, Compound 1 was orally administered once a day on day 1 to day 4, day 8 to day 11, and day 15 to day 18 of three courses for a total duration of 21 days, with one course taken as 7 days.
In the schedule of administration for 7 consecutive days, the administration amount taken at one time started at 4 mg/body/day. […]
In the present invention, the 3+3 design was performed in the following manner. […] Whether the level proceeds is determined by the investigator and the sponsor based on comprehensive considerations of not only the information on DLTs, but also all related toxicities regardless of whether they are DLTs, and drugs used in combination/combination therapy from a clinical perspective. […]

The subject of another data set is advanced solid cancers. Briefly: Optimal dosage regimen study in humans: safety (non-prescribed withdrawal) and efficacy (RECIST) profiles. It is filed as in vivo, human. Conditions: for Non-prescribed withdrawal: N = 6. How it is done: With regard to Example 3, the optimal dosage regimen of Compound 1 was studied. The safety profiles and efficacy profiles when the recommend doses were administered in the schedule of administration for 7 consecutive days and the schedule of 4-administration with 3-withdrawal were compared in patients with advanced solid cancers for which standard treatment options were not available.
For the safety profiles, non-prescribed withdrawal periods were compared. The non-prescribed withdrawal period is a comprehensive index of safety profiles.
In this Example, dose modification criteria in the case of the occurrence of a toxicity for which a causal relationship to the drug cannot be denied were shown. Dose modification criteria for non-hematologic toxicities, dose modification criteria for hematologic toxicities, and dose modification criteria for other toxicities were set. When any of these criteria was met, a prescribed day to perform drug administration was changed to a day on which the drug is not administered, i.e., a non-prescribed withdrawal period.
The dose modification criteria for non-hematologic toxicities for which a causal relationship to the drug cannot be denied were set as follows.
With regard to fasting blood glucose, if symptomatic grade 4 hyperglycemia or grade 3 or higher hyperglycemia for more than 7 days develops, the administration is discontinued (non-prescribed withdrawal). If the condition recovers to grade 1 or grade 0, the administration can be resumed. When the administration is resumed, the administration amount is reduced by one level from the original administration amount. However, for adverse events (e.g., fatigue and skin dryness) that are judged to be less likely to become serious or worsen to life-threatening events, the administration of the drug can be continued at the same administration amount without dose reduction or administration discontinuation, regardless of the grades of the events.
In the case of DLTs or grade 3 or higher non-hematologic toxicities as other toxicities, the administration is discontinued (non-prescribed withdrawal). If the condition recovers to grade 1 or less or to the baseline, the administration can be resumed. As grade 3 or higher non-hematologic toxicities, grade 3 nausea and/or vomiting that could be treated by intensive antiemetic therapy, grade 3 diarrhea in which an antidiarrheal was effective, and grade 3 skin toxicity that could be treated by intensive skin treatment with, for example, a topical steroid and/or an oral corticosteroid are excluded. When the administration is resumed, the administration amount is reduced by one level from the original administration amount. However, for adverse events (e.g., fatigue and skin dryness) that are judged to be less likely to become serious or worsen to life-threatening events, the administration of the drug can be continued at the same administration amount without dose reduction or administration discontinuation, regardless of the grades of the events.
The dose modification criteria for hematologic toxicities for which a causal relationship to the drug cannot be denied were set as follows.
If the neutrophil count is less than 500/mm^3, the administration is discontinued (non-prescribed withdrawal). If the neutrophil count recovers to 1500/mm^3 or more, the administration can be resumed. […] In the case of asymptomatic neutropenia lasting more than 7 days or neutropenia with a symptom (neutropenia with an infectious disease or fever), the administration amount is reduced by one level from the original administration amount.
If the platelet count is less than 25000/mm^3, the administration is discontinued (non-prescribed withdrawal). If the platelet count recovers to 75000/mm^3 or more, the administration can be resumed. When the administration is resumed, the administration amount is reduced by one level from the original administration amount. […]

A short description of data set [2]: Pharmacokinetics of Compound 1 in humans. In kind it is in vivo, human. Particulars: for Blood concentration remaining before administration: 24 mg/body/day, 4-administration with 3-withdrawal. The method, then:
The pharmacokinetics of the recommend doses of Compound 1 in administration for 7 consecutive days and 4-administration with 3-withdrawal were measured in patients with advanced solid cancers for which standard treatment options were not available.
In the administration for 7 consecutive days, Compound 1 was orally administered once a day at a dose of 16 mg/body/day for three courses for a total duration of 21 days, with one course taken as 7 days. Blood samples were taken over time on day 1 and day 21, which was the last administration day of the three courses, to measure the pharmacokinetics.
In the 4-administration with 3-withdrawal, Compound 1 was orally administered once a day at a dose of 24 mg/body/day for three courses for a total duration of 21 days, with one course taken as 7 days. Blood samples were taken over time on day 1 and day 18, which was the last administration day of the three courses, to measure the pharmacokinetics. Blood samples were also taken immediately before administration on day 3, day 4, and day 8.

Data set [3] has as its system Human ovarian cancer cell line OVCAR-3. Nature of the data set: Administration schedule study in nude mouse model subcutaneously transplanted with OVCAR-3. It is filed as in vivo. Conditions: OVCAR-3 xenograft, FIG. 1. The method, then: Human ovarian cancer cell line OVCAR-3 (American Type Culture Collection (ATCC)) that had been subcutaneously subcultured in mice was cut to about 2 mm squares and subcutaneously transplanted into 5-week-old […] BALB/cAJcl-nu/nu mice (CLEA Japan, Inc.) using a transplantation needle.
The grouping day was defined as Day 1.
The tumor volume (TV) was calculated using the following formula.
TV=(major axis×minor axis×minor axis)×½
Requisite amounts of Compound 1 were weighed, and each was individually suspended in a 0.5% (w/v) hydroxypropyl methylcellulose (HPMC) aqueous solution to prepare administration liquids having appropriate concentrations. For the control group, a 0.5% (w/v) HPMC aqueous solution was used as an administration liquid.
The administration amount was 10 mL/kg body weight, and each administration liquid was individually injected into the stomach of the mice with a feeding needle.
Twice a week, the major axis and the minor axis of each tumor were measured from the skin with an electronic caliper, and the following items were further calculated. These were used as indexes to confirm the presence or absence of an antitumor effect.
Tumor volume (TVn)=(major axis×minor axis×minor axis)×½ […]
On the same days as the tumor volume measurement, the body weight (BW) of the mice was measured with an electronic balance, and the body weight change (BWC) was further calculated. […]

The conditions of data set [4]: mice; cited from earlier work.
For data set [5] the following is noted: humans; cited from earlier work.
[6] abbreviates: 4-administration with 3-withdrawal, 24 mg/body/day.
The mark [7] stands for this setting: administration for 7 consecutive days, 16 mg/body/day.

Values joined by “and” are separate entries in the source; they are usually repeats but may differ in a detail not shown here. Equal entries are not always repeated. Where two headings read alike, the source gives them in different places.

In the case of `C[C@]1(O)C[C@@](N)(c2ccc(-c3nc4n(c3-c3ccccc3)COc3ccncc3-4)cc2)C1` [Compound 1, trans-3-amino-1-methyl-3-(4-(3-phenyl-5H-imidazo[1,2-c]pyrido[3,4-e][1,3]oxazin-2-yl)phenyl)cyclobutanol], the “Maximum tolerable administration amount (recommend dose)” value in data set [1] (4-administration with 3-withdrawal) is 24 mg/body/day; in data set [1] (administration for 7 consecutive days), 16 mg/body/day. Further, the Non-prescribed withdrawal period in the data set with advanced solid cancers (setting [6]) was 2 days and 2.0 days; in the data set with advanced solid cancers (administration for 7 consecutive days, 16 mg/body/day, average), 3.7 days. Also, the Non-prescribed withdrawal entry is “one of six patients and 1/6” in the data set with advanced solid cancers (setting [6]); “three of six patients and 3/6” in the data set on advanced solid cancers (setting [7]). The RECIST evaluation entry in the data set on advanced solid cancers (4-administration with 3-withdrawal, 24 mg/body/day, six patients) was “two of the six patients had stable disease (SD)”; in the data set on advanced solid cancers (setting [7]), “all of the patients had progressive disease (PD)”. Moreover, the “Tumor shrinkage effect (waterfall plots), 4-administration with 3-withdrawal versus 7 consecutive days” value in the data set with advanced solid cancers (recommend doses, FIG. 4) was “superior”. The “Accumulation (blood drug concentrations day 21 or day 18 versus day 1)” value in data set [2] (16 mg/body/day 7 consecutive days and 24 mg/body/day 4-administration with 3-withdrawal) was “has accumulation properties”. Also, the “Blood concentration remaining before administration” value in data set [2] (day 3) stood at 25.7 ng/mL; in data set [2] (day 4), 35.7 ng/mL. Besides, the Half-life in data set [2] (human, blood, humans, oral) is about 49 h; in data set [4], “about 2.3 hours”. Further, the Body weight change result in data set [3] (each Compound 1 administration group) is “without serious weight loss”. In addition, the “Antitumor effect (RTV, T/C)” value in data set [3] (oral 16 or 24 mg/kg/day 7 consecutive days or 24 mg/kg/day 4-administration with 3-withdrawal, Days 1-21) is listed as “excellent antitumor effect”.

For the compound AZD5363, in data set [5], the Half-life result was “about 6 hours”.

The values above are taken from patent publication US20220354858A1, “METHOD FOR TREATING MALIGNANT TUMOR” (TAIHO PHARMACEUTICAL CO., LTD., priority 2019, published 2022).
